# Measurements as given in patent US10905651B1, “Zeinmersome nanocarriers for drug delivery to the liver” (King Abdulaziz University, priority 2020, dated 2021).
# Columns and labels:
# AT1 receptor = biological target: T1, AT1 receptor (Homo sapiens, UniProt P30556); conditions: cited from earlier work
# T1 sequence (P30556 1-359): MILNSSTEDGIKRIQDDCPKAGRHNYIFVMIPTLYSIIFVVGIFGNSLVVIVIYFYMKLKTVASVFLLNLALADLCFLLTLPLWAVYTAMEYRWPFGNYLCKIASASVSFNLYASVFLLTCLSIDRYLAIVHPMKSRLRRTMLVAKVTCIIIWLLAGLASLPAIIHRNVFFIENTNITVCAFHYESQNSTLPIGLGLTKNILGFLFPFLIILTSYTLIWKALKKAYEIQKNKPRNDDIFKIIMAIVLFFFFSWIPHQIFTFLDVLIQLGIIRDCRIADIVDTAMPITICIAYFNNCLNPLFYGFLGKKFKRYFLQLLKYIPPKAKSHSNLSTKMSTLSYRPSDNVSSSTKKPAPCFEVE
# [1] = system: TAA-induced hepatic fibrosis rats; test: Histopathology of hepatic sections in TAA-induced hepatic fibrosis rats; assay type: in vivo, rat; conditions: two months, H&E
# Method: Rats were given freshly prepared TAA (0.9% w/v in saline solution, 200 mg/kg, ip) twice weekly for eight weeks. A normal control (NC) group of rats (n=8) received injections of the vehicle twice weekly for eight weeks. The TAA-treated rats were randomly assigned to groups (n=8), including a test group for each dosage of a free drug (not encapsulated in ZMS), each dosage of zeinmersomes encapsulating the drug, and a positive control group (PC) having hepatic fibrosis but receiving a vehicle-only treatment instead of a drug treatment. Five groups of rats (n=8) were given freshly prepared TAA (0.9% w/v in saline solution, 200 mg/kg, ip) twice weekly for eight weeks and a normal control (NC) group received vehicle injections, as described in Example 4. The five TAA groups included a positive control group (PC, untreated) and four groups treated with low and high doses (2 and 4 mg/kg/day) of OM as raw drug (OL & OH, respectively) and the same low and high doses (2 and 4 mg/kg/day) of OM formulated as zeinmersomes (OLZMS & OHZMS, respectively). […] The plasma levels of ALT and AST and the homogenate levels of IL-6, reduced glutathione (GSH), TNF-α, malondialdehyde (MDA), and protein content were measured using ELISA kits (MyBioSource, Inc. CA, USA). In addition, the concentrations of olmesartan in plasma and liver homogenate were measured by HPLC/MS. […]
# AT4 receptors = conditions: cited from earlier work
compound,measurement,setting,value
"CCCc1nc(C(C)(C)O)c(C(=O)OCc2oc(=O)oc2C)n1Cc1ccc(-c2ccccc2-c2nnn[nH]2)cc1 [OM, (5-methyl-2-oxo-1,3-dioxol-4-yl)methyl 5-(2-hydroxypropan-2-yl)-2-propyl-3-[[4-[2-(2H-tetrazol-5-yl)phenyl]phenyl]methyl]imidazole-4-carboxylate]",AT1 receptor blockade,AT1 receptor,competitive and selective AT1 receptor blocker
same,"liver histopathology (fibrosis, inflammatory infiltration, hepatocytic degeneration)",[1]; high dose 4 mg/kg/day oral,mild improvement
same,"liver histopathology (fibrosis, inflammatory infiltration, hepatocytic degeneration)",[1]; low dose 2 mg/kg/day oral,no improvement
same,antagonistic effects on the AT4 receptors,AT4 receptors,almost no antagonistic effects
